Data published in ChEMBL document CHEMBL1201862, “PubChem BioAssay data set” (2004).
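In this assay, cells in 96-well plates receive the compound at five concentrations for 48 hours. Endpoints are linearly interpolated between the surrounding concentrations. GI50 = concentration required for 50% inhibition of growth.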 Calls of active or inactive are those of the source. Rule as the data show it: active = GI50 up to about 1.1 µM and inactive = higher.

Assays:
Test in all cases: DTP human tumour cell line panel, 48 h
[1] = test system: EKVX
[2] = test system: LOX IMVI
[3] = test system: HT-29
[4] = test system: NCI-H226
[5] = test system: HOP-92
[6] = test system: HL-60
[7] = test system: HCT-116
[8] = test system: HCT-15
[9] = test system: CCRF-CEM
[10] = test system: TK-10
[11] = test system: XF498
[12] = test system: KM12
[13] = test system: SF-539
[14] = test system: A549
[15] = test system: CAKI-1
[16] = test system: M19-MEL
[17] = test system: SW-620
[18] = test system: OVCAR-3
[19] = test system: NCI-H23
[20] = test system: SF-295
[21] = test system: SNB-19
[22] = test system: SK-MEL-5
[23] = test system: OVCAR-4
[24] = test system: M14
[25] = test system: A498
[26] = test system: ACHN
[27] = test system: IGROV-1
[28] = test system: OVCAR-5
[29] = test system: COLO 205
[30] = test system: K562
[31] = test system: SNB-75
[32] = test system: HOP-62
[33] = test system: SF-268
[34] = test system: MOLT-4
[35] = test system: U-251
[36] = test system: HOP-18
[37] = test system: NCI-H522
[38] = test system: LXFL 529
[39] = test system: SN12C
[40] = test system: DMS-114
[41] = test system: OVCAR-8
[42] = test system: UACC-62
[43] = test system: NCI-H460
[44] = test system: HCC 2998
[45] = test system: UACC-257
[46] = test system: RXF 393
[47] = test system: SK-OV-3
[48] = test system: DLD-1
[49] = test system: SK-MEL-28
[50] = test system: 786-0
[51] = test system: KM-20L2
[52] = test system: SR
[53] = test system: SK-MEL-2
[54] = test system: RPMI-8226
[55] = test system: DMS-273
[56] = test system: Malme-3M
[57] = test system: UO-31

## COC(=O)CCC(=O)N1CC1C (configuration not stated)
[1]
  GI50: > 100 µM (inactive)
[2]
  GI50: > 100 µM (inactive)
[3]
  GI50: > 100 µM (inactive)
[4]
  GI50: > 100 µM (inactive)
[5]
  GI50: > 100 µM (inactive)
[6]
  GI50: > 100 µM (inactive)
[7]
  GI50: > 100 µM (inactive)
[8]
  GI50: > 100 µM
[9]
  GI50: > 100 µM (inactive)
[10]
  GI50: > 100 µM (inactive)
[11]
  GI50: > 100 µM (inactive)
[12]
  GI50: > 100 µM (inactive)
[13]
  GI50: > 100 µM (inactive)
[14]
  GI50: > 100 µM (inactive)
[15]
  GI50: > 100 µM (inactive)
[16]
  GI50: > 100 µM (inactive)
[17]
  GI50: > 100 µM (inactive)
[18]
  GI50: > 100 µM (inactive)
[19]
  GI50: > 100 µM (inactive)
[20]
  GI50: > 100 µM (inactive)
[21]
  GI50: > 100 µM (inactive)
[22]
  GI50: > 100 µM (inactive)
[23]
  GI50: > 100 µM (inactive)
[24]
  GI50: > 100 µM (inactive)
[25]
  GI50: > 100 µM (inactive)
[26]
  GI50: > 100 µM (inactive)
[27]
  GI50: > 100 µM (inactive)
[28]
  GI50: > 100 µM (inactive)
[29]
  GI50: > 100 µM (inactive)
[30]
  GI50: > 100 µM (inactive)
[31]
  GI50: > 100 µM (inactive)
[32]
  GI50: > 100 µM (inactive)
[33]
  GI50: > 100 µM (inactive)
[34]
  GI50: > 100 µM (inactive)
[35]
  GI50: > 100 µM (inactive)
[36]
  GI50: > 100 µM (inactive)
[37]
  GI50: > 100 µM (inactive)
[38]
  GI50: > 100 µM (inactive)
[39]
  GI50: > 100 µM (inactive)
[40]
  GI50: > 100 µM (inactive)
[41]
  GI50: > 100 µM (inactive)
[42]
  GI50: > 100 µM (inactive)
[43]
  GI50: > 100 µM (inactive)
[44]
  GI50: > 100 µM (inactive)
[45]
  GI50: > 100 µM (inactive)
[46]
  GI50: > 100 µM (inactive)
[47]
  GI50: > 100 µM (inactive)
[48]
  GI50: > 100 µM (inactive)
[49]
  GI50: > 100 µM (inactive)
[50]
  GI50: > 100 µM (inactive)
[51]
  GI50: > 100 µM (inactive)
[52]
  GI50: > 100 µM (inactive)
[53]
  GI50: > 100 µM (inactive)
[54]
  GI50: > 100 µM (inactive)
[55]
  GI50: > 100 µM (inactive)
[56]
  GI50: > 100 µM (inactive)
[57]
  GI50: > 100 µM (inactive)

## CC1OC(O)CC(OC(=O)c2ccccc2)C1OC(=O)c1ccccc1 (configuration not stated)
[2]
  GI50: 11.1 µM (inactive)
[3]
  GI50: 21.6 µM (inactive)
[5]
  GI50: 20 µM (inactive)
[6]
  GI50: 13.6 µM (inactive)
[7]
  GI50: 11.3 µM (inactive)
[8]
  GI50: 15.3 µM
[9]
  GI50: 10.3 µM (inactive)
[10]
  GI50: > 100 µM (inactive)
[11]
  GI50: 19.9 µM (inactive)
[12]
  GI50: 39.6 µM (inactive)
[13]
  GI50: 17.5 µM (inactive)
[14]
  GI50: > 100 µM (inactive)
[15]
  GI50: 23.3 µM (inactive)
[16]
  GI50: 17.5 µM (inactive)
[17]
  GI50: 13.3 µM (inactive)
[18]
  GI50: 19.1 µM (inactive)
[19]
  GI50: 16 µM (inactive)
[20]
  GI50: 48 µM (inactive)
[21]
  GI50: 90.4 µM (inactive)
[22]
  GI50: 16.7 µM (inactive)
[23]
  GI50: 15.1 µM (inactive)
[24]
  GI50: 16.7 µM (inactive)
[25]
  GI50: > 100 µM (inactive)
[26]
  GI50: 18.2 µM (inactive)
[27]
  GI50: 12.4 µM (inactive)
[28]
  GI50: > 100 µM (inactive)
[29]
  GI50: 27 µM (inactive)
[30]
  GI50: 16.8 µM (inactive)
[32]
  GI50: 71.6 µM (inactive)
[33]
  GI50: 16.2 µM (inactive)
[34]
  GI50: 13.9 µM (inactive)
[35]
  GI50: 30.1 µM (inactive)
[36]
  GI50: 26.3 µM (inactive)
[37]
  GI50: > 100 µM (inactive)
[38]
  GI50: 16.2 µM (inactive)
[39]
  GI50: 17.3 µM (inactive)
[41]
  GI50: 15.7 µM (inactive)
[42]
  GI50: 16.7 µM (inactive)
[43]
  GI50: 49.4 µM (inactive)
[44]
  GI50: 43.6 µM (inactive)
[45]
  GI50: 15.3 µM (inactive)
[46]
  GI50: 18.8 µM (inactive)
[48]
  GI50: 14.3 µM (inactive)
[49]
  GI50: 16.1 µM (inactive)
[50]
  GI50: 29.4 µM (inactive)
[51]
  GI50: 66.2 µM (inactive)
[52]
  GI50: 13.2 µM (inactive)
[54]
  GI50: 8.18 µM (inactive)
[55]
  GI50: 14.5 µM (inactive)
[56]
  GI50: 16.6 µM (inactive)
